From US20100099561A1, “HETEROBICYCLIC ALKYLTHIO-BRIDGED ISOXAZOLINES” (E.I. DU PONT DE NEMOURS AND COMPANY, priority 2008, published 2010)

Key:
Type in all cases: in vivo
[1] = system: cocklebur (Xanthium strumarium); assay: Test B preemergence, cocklebur; conditions: scale 0 to 100
Text: (§1) Seeds of plant species selected from blackgrass (Alopecurus myosuroides), downy bromegrass (Bromus tectorum), green foxtail (Setaria viridis), Italian ryegrass (Lolium multiflorum), wheat (Triticum aestivum), wild oat (Avena fatua), catchweed bedstraw (Galium aparine), bermudagrass (Cynodon dactylon), Surinam grass (Brachiaria decumbens), cocklebur (Xanthium strumarium), corn (Zea mays), large crabgrass (Digitaria sanguinalis), woolly cupgrass (Eriochloa villosa), giant foxtail (Setaria faberii), goosegrass (Eleusine indica), johnsongrass (Sorghum halepense), kochia (Kochia scoparia), lambsquarters (Chenopodium album), morningglory (Ipomoea coccinea), nightshade (eastern black nightshade, Solanum ptycanthum), yellow nutsedge (Cyperus esculentus), pigweed (Amaranthus retroflexus), ragweed (common ragweed, Ambrosia elatior), soybean (Glycine max), sunflower (common oilseed sunflower, Helianthus annuus), Russian thistle (Salsola kali), and velvetleaf (Abutilon theophrasti) were planted into a blend of loam soil and sand and treated preemergence with test compounds formulated in a non-phytotoxic solvent mixture which included a surfactant. Treated plants and controls were maintained in a greenhouse for 13 to 15 days, after which time all species were compared to controls and visually evaluated. Plant response ratings, summarized in Table B, are based on a scale of 0 to 100 where 0 is no effect and 100 is complete control. A dash (-) response means no test result.

[2] = system: ragweed (common ragweed, Ambrosia elatior); assay: Test B preemergence, ragweed; conditions: scale 0 to 100
Text: as §1

[3] = system: pigweed (Amaranthus retroflexus); assay: Test B preemergence, pigweed; conditions: scale 0 to 100
Text: as §1

[4] = system: soybean (Glycine max); assay: Test B preemergence, soybean; conditions: Preemergence, scale 0 to 100
Text: as §1

[5] = system: barnyardgrass (Echinochloa crus-galli); assay: Test A preemergence, barnyardgrass; conditions: 0 to 100 scale (0 no effect, 100 complete control)
How it was run: (§2)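 Visual injury scored 0 (no effect) to 100 (complete control) against untreated plants roughly ten days after greenhouse treatment. Postemergence sprays hit one- to two-leaf plants 2–10 cm high; preemergence was a directed spray onto loam–sand soil, both using surfactant-containing solvent formulations.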

[6] = system: Italian ryegrass (Lolium multiflorum); assay: Test B preemergence, Italian ryegrass; conditions: Preemergence, scale 0 to 100
Text: as §1

[7] = system: barnyardgrass (Echinochloa crus-galli); assay: Test B flooded paddy test, barnyardgrass; conditions: Flood
How it was run: (§3)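 Step one: raise plants to 2 leaves. Step two: flood pots 3 cm over the soil and apply compound into the water, keeping this depth. Step three: after 13–15 greenhouse days, score visually versus controls, 0–100, where 100 means complete control.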

[8] = system: woolly cupgrass (Eriochloa villosa); assay: Test B preemergence, woolly cupgrass; conditions: scale 0 to 100
Text: as §1

[9] = system: morningglory (Ipomoea spp.); assay: Test A postemergence, morningglory; conditions: 0 to 100 scale (0 no effect, 100 complete control)
How it was run: as §2

[10] = system: Surinam grass (Brachiaria decumbens); assay: Test B preemergence, Surinam grass; conditions: Preemergence, scale 0 to 100
Text: as §1

[11] = system: sunflower (common oilseed sunflower, Helianthus annuus); assay: Test B preemergence, sunflower; conditions: Preemergence, scale 0 to 100
Text: as §1

[12] = system: large crabgrass (Digitaria sanguinalis); assay: Test B preemergence, large crabgrass; conditions: scale 0 to 100
Text: as §1

[13] = system: downy bromegrass (Bromus tectorum); assay: Test B preemergence, downy bromegrass; conditions: scale 0 to 100
Text: as §1

[14] = system: corn (Zea mays); assay: Test A postemergence, corn; conditions: 0 to 100 scale (0 no effect, 100 complete control)
How it was run: as §2

[15] = system: goosegrass (Eleusine indica); assay: Test B preemergence, goosegrass; conditions: scale 0 to 100
Text: as §1

[16] = system: barnyardgrass (Echinochloa crus-galli); assay: Test A postemergence, barnyardgrass; conditions: 0 to 100 scale (0 no effect, 100 complete control)
How it was run: as §2

[17] = system: umbrella sedge (Cyperus difformis); assay: Test B flooded paddy test, umbrella sedge; conditions: Flood, scale 0 to 100
How it was run: as §3

[18] = system: lambsquarters (Chenopodium album); assay: Test B preemergence, lambsquarters; conditions: scale 0 to 100
Text: as §1

[19] = 250 g ai/ha, scale 0 to 100 (0 no effect, 100 complete control)

## CC1(C)CC(S(=O)(=O)Cc2c(C(F)(F)F)nc3n(c2=O)CCC3)=NO1 [Compound 11, 3-[[(4,5-dihydro-5,5-dimethyl-3-isoxazolyl)sulfonyl]methyl]-7,8-dihydro-2-(trifluoromethyl)pyrrolo[1,2-α]pyrimidin-4(6H)-one]
[1]; 16 g ai/ha
  Plant response rating, Cocklebur: 0
[1]; 31 g ai/ha
  Plant response rating, Cocklebur: 0
[1]; 62 g ai/ha
  Plant response rating, Cocklebur: 0
[1]; 125 g ai/ha
  Plant response rating, Cocklebur: 0
[2]; 16 g ai/ha
  Plant response rating, Ragweed: 0
[2]; 31 g ai/ha
  Plant response rating, Ragweed: 40
[2]; 62 g ai/ha
  Plant response rating, Ragweed: 50
[2]; 125 g ai/ha
  Plant response rating, Ragweed: 55
[3]; 16 g ai/ha
  Plant response rating, Pigweed: 0
[3]; 31 g ai/ha
  Plant response rating, Pigweed: 0
[3]; 62 g ai/ha
  Plant response rating, Pigweed: 100
[3]; 125 g ai/ha
  Plant response rating, Pigweed: 100
[4]; 16 g ai/ha
  Plant response rating, Soybean: 0
[4]; 31 g ai/ha
  Plant response rating, Soybean: 0
[4]; 62 g ai/ha
  Plant response rating, Soybean: 0
[4]; 125 g ai/ha
  Plant response rating, Soybean: 0
[5]; 125 g ai/ha
  Plant response rating, Barnyardgrass: 60
[5]; 500 g ai/ha
  Plant response rating, Barnyardgrass: 90
[6]; 16 g ai/ha
  Plant response rating, Ryegrass, Italian: 0
[6]; 31 g ai/ha
  Plant response rating, Ryegrass, Italian: 0
[6]; 62 g ai/ha
  Plant response rating, Ryegrass, Italian: 0
[6]; 125 g ai/ha
  Plant response rating, Ryegrass, Italian: 90
[7]; 31 g ai/ha, scale 0 to 100
  Plant response rating, Barnyardgrass: 0
[7]; 62 g ai/ha, scale 0 to 100
  Plant response rating, Barnyardgrass: 0
[7]; 125 g ai/ha, scale 0 to 100
  Plant response rating, Barnyardgrass: 0
[7]; [19]
  Plant response rating, Barnyardgrass: 20
[8]; 16 g ai/ha
  Plant response rating, Cupgrass, Woolly: 85
[8]; 31 g ai/ha
  Plant response rating, Cupgrass, Woolly: 100
[8]; 62 g ai/ha
  Plant response rating, Cupgrass, Woolly: 100
[8]; 125 g ai/ha
  Plant response rating, Cupgrass, Woolly: 100
[9]; 125 g ai/ha
  Plant response rating, Morningglory: 10
[9]; 500 g ai/ha
  Plant response rating, Morningglory: 60
[10]; 16 g ai/ha
  Plant response rating, Surinam Grass: 0
[10]; 31 g ai/ha
  Plant response rating, Surinam Grass: 0
[10]; 62 g ai/ha
  Plant response rating, Surinam Grass: 0
[10]; 125 g ai/ha
  Plant response rating, Surinam Grass: 85
[11]; 16 g ai/ha
  Plant response rating, Sunflower: 0
[11]; 31 g ai/ha
  Plant response rating, Sunflower: 0
[11]; 62 g ai/ha
  Plant response rating, Sunflower: 0
[11]; 125 g ai/ha
  Plant response rating, Sunflower: 20
[12]; 16 g ai/ha
  Plant response rating, Crabgrass, Large: 65
[12]; 31 g ai/ha
  Plant response rating, Crabgrass, Large: 85
[12]; 62 g ai/ha
  Plant response rating, Crabgrass, Large: 100
[12]; 125 g ai/ha
  Plant response rating, Crabgrass, Large: 100
[13]; 16 g ai/ha
  Plant response rating, Bromegrass, Downy: 0
[13]; 31 g ai/ha
  Plant response rating, Bromegrass, Downy: 0
[13]; 62 g ai/ha
  Plant response rating, Bromegrass, Downy: 0
[13]; 125 g ai/ha
  Plant response rating, Bromegrass, Downy: 65
[14]; 125 g ai/ha
  Plant response rating, Corn: 20
[14]; 500 g ai/ha
  Plant response rating, Corn: 50
[15]; 16 g ai/ha
  Plant response rating, Goosegrass: 65
[15]; 31 g ai/ha
  Plant response rating, Goosegrass: 90
[15]; 62 g ai/ha
  Plant response rating, Goosegrass: 100
[15]; 125 g ai/ha
  Plant response rating, Goosegrass: 100
[16]; 125 g ai/ha
  Plant response rating, Barnyardgrass: 80
[16]; 500 g ai/ha
  Plant response rating, Barnyardgrass: 90
[17]; 31 g ai/ha
  Plant response rating, Sedge, Umbrella: 0
[17]; 62 g ai/ha
  Plant response rating, Sedge, Umbrella: 0
[17]; 125 g ai/ha
  Plant response rating, Sedge, Umbrella: 0
[17]; 250 g ai/ha
  Plant response rating, Sedge, Umbrella: 20
[18]; 16 g ai/ha
  Plant response rating, Lambsquarters: 0
[18]; 31 g ai/ha
  Plant response rating, Lambsquarters: 0
[18]; 62 g ai/ha
  Plant response rating, Lambsquarters: 0
[18]; 125 g ai/ha
  Plant response rating, Lambsquarters: 100

## CC1(C)CC(S(=O)(=O)Cc2c(C(F)(F)C(F)(F)F)nc3n(c2=O)CCC3)=NO1 [Compound 22]
[1]; 16 g ai/ha
  Plant response rating, Cocklebur: 0
[1]; 31 g ai/ha
  Plant response rating, Cocklebur: 0
[1]; 62 g ai/ha
  Plant response rating, Cocklebur: 0
[1]; 125 g ai/ha
  Plant response rating, Cocklebur: 0
[2]; 16 g ai/ha
  Plant response rating, Ragweed: 0
[2]; 31 g ai/ha
  Plant response rating, Ragweed: 0
[2]; 62 g ai/ha
  Plant response rating, Ragweed: 30
[2]; 125 g ai/ha
  Plant response rating, Ragweed: 50
[3]; 31 g ai/ha
  Plant response rating, Pigweed: 0
[3]; 125 g ai/ha
  Plant response rating, Pigweed: 100
[4]; 16 g ai/ha
  Plant response rating, Soybean: 0
[4]; 31 g ai/ha
  Plant response rating, Soybean: 0
[4]; 62 g ai/ha
  Plant response rating, Soybean: 0
[4]; 125 g ai/ha
  Plant response rating, Soybean: 0
[5]; 125 g ai/ha
  Plant response rating, Barnyardgrass: 80
[5]; 500 g ai/ha
  Plant response rating, Barnyardgrass: 90
[6]; 16 g ai/ha
  Plant response rating, Ryegrass, Italian: 0
[6]; 31 g ai/ha
  Plant response rating, Ryegrass, Italian: 30
[6]; 62 g ai/ha
  Plant response rating, Ryegrass, Italian: 100
[6]; 125 g ai/ha
  Plant response rating, Ryegrass, Italian: 100
[7]; 62 g ai/ha, scale 0 to 100
  Plant response rating, Barnyardgrass: 0
[7]; [19]
  Plant response rating, Barnyardgrass: 0
[8]; 16 g ai/ha
  Plant response rating, Cupgrass, Woolly: 100
[8]; 31 g ai/ha
  Plant response rating, Cupgrass, Woolly: 100
[8]; 62 g ai/ha
  Plant response rating, Cupgrass, Woolly: 100
[8]; 125 g ai/ha
  Plant response rating, Cupgrass, Woolly: 100
[9]; 125 g ai/ha
  Plant response rating, Morningglory: 0
[9]; 500 g ai/ha
  Plant response rating, Morningglory: 50
[10]; 16 g ai/ha
  Plant response rating, Surinam Grass: 0
[10]; 31 g ai/ha
  Plant response rating, Surinam Grass: 0
[10]; 62 g ai/ha
  Plant response rating, Surinam Grass: 90
[10]; 125 g ai/ha
  Plant response rating, Surinam Grass: 95
[11]; 16 g ai/ha
  Plant response rating, Sunflower: 0
[11]; 31 g ai/ha
  Plant response rating, Sunflower: 0
[11]; 62 g ai/ha
  Plant response rating, Sunflower: 0
[11]; 125 g ai/ha
  Plant response rating, Sunflower: 50
[12]; 16 g ai/ha
  Plant response rating, Crabgrass, Large: 85
[12]; 31 g ai/ha
  Plant response rating, Crabgrass, Large: 90
[12]; 62 g ai/ha
  Plant response rating, Crabgrass, Large: 98
[12]; 125 g ai/ha
  Plant response rating, Crabgrass, Large: 100
[13]; 16 g ai/ha
  Plant response rating, Bromegrass, Downy: 0
[13]; 31 g ai/ha
  Plant response rating, Bromegrass, Downy: 0
[13]; 62 g ai/ha
  Plant response rating, Bromegrass, Downy: 0
[13]; 125 g ai/ha
  Plant response rating, Bromegrass, Downy: 60
[14]; 125 g ai/ha
  Plant response rating, Corn: 0
[14]; 500 g ai/ha
  Plant response rating, Corn: 0
[15]; 16 g ai/ha
  Plant response rating, Goosegrass: 30
[15]; 31 g ai/ha
  Plant response rating, Goosegrass: 80
[15]; 62 g ai/ha
  Plant response rating, Goosegrass: 100
[15]; 125 g ai/ha
  Plant response rating, Goosegrass: 100
[16]; 125 g ai/ha
  Plant response rating, Barnyardgrass: 70
[16]; 500 g ai/ha
  Plant response rating, Barnyardgrass: 80
[17]; 62 g ai/ha
  Plant response rating, Sedge, Umbrella: 0
[17]; 250 g ai/ha
  Plant response rating, Sedge, Umbrella: 0
[18]; 16 g ai/ha
  Plant response rating, Lambsquarters: 0
[18]; 31 g ai/ha
  Plant response rating, Lambsquarters: 0
[18]; 62 g ai/ha
  Plant response rating, Lambsquarters: 70
[18]; 125 g ai/ha
  Plant response rating, Lambsquarters: 100
